In publication PMC7012919, “TRPM7 contributes to progressive nephropathy” (Scientific Reports, 2020):

Target: TRPM7 (Rattus norvegicus, UniProt Q925B3)
Test: whole-cell patch clamp of endogenous TRPM7 currents in NRK-52E and NRK-49F cells ([…] complete block); IC50 from Fura-2 Mn2+ quench in NRK-52E cells
Type: cell-based

TRPM7, sequence (Q925B3 whole entry): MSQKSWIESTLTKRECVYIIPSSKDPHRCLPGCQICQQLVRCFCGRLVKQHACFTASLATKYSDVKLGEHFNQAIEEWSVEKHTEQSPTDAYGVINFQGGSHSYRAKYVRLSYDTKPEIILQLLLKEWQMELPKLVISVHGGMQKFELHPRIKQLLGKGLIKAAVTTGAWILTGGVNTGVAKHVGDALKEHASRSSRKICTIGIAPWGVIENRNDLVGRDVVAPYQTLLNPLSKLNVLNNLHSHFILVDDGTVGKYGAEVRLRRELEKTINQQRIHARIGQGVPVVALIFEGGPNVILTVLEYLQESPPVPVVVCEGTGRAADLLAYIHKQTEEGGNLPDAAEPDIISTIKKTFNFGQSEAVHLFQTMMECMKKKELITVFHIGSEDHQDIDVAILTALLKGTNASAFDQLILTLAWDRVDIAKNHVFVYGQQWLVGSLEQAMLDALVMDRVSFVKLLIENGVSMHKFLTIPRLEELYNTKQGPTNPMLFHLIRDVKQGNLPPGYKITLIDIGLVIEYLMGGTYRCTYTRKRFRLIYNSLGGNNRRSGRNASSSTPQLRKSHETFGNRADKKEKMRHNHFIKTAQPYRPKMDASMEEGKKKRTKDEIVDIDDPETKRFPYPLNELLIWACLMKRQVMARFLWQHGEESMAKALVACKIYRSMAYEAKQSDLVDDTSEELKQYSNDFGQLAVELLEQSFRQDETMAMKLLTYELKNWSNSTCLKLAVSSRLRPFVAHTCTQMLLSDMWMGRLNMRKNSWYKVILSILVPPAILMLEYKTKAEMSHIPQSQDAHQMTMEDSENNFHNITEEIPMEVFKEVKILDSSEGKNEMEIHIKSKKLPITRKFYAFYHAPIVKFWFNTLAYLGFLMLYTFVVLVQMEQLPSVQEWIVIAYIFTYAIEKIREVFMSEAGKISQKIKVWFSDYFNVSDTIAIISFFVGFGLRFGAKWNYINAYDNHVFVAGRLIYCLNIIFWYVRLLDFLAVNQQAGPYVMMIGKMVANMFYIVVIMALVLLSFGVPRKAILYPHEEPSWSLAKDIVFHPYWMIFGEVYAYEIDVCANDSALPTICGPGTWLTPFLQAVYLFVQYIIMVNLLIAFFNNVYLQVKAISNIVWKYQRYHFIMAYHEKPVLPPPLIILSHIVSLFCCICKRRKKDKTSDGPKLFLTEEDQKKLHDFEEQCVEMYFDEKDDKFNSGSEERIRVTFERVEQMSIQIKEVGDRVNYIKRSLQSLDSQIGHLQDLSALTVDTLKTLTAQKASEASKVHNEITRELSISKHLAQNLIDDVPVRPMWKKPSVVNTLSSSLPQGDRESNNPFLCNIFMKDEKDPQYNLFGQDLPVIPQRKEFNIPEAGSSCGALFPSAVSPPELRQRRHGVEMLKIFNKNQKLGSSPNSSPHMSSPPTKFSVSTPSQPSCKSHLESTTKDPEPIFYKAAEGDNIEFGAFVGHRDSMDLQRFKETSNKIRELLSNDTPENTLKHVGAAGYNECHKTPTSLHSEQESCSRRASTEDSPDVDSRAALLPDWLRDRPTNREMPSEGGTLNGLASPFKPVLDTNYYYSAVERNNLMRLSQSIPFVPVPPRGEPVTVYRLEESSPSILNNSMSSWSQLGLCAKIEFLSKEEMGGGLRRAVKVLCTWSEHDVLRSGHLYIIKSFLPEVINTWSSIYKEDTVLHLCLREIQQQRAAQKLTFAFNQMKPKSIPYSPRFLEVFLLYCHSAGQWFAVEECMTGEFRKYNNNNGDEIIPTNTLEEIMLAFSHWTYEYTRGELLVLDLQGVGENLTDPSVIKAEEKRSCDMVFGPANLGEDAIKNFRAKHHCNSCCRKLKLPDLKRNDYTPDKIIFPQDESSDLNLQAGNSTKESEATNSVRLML

IC50: 16 ± 3 µM
Structure (SMILES): c1ccc2c(c1)CCC[C@H]2Nc1nc2ccccc2[nH]1 [NS8593]
